Results as given in patent EP0580252A2, “Improvements in or relating to pectin methyl esterase” (QUEST INTERNATIONAL B.V., priority 1992, dated 1994).

Legend:
[1] = tested on: papain derived PME (pectin methyl esterase); assay: Inhibition test with tyrosine selective inhibitor N-acetyl-imidazole; type: biochemical, papaya; conditions: NAI 1.4mg.100 ml; 1% pectin (5% for papain also); enzyme 0.005-0.088%
Method: (§1) Bacterial and plant derived PMEs were tested for inhibition by N-acetyl-imidazole (NAI), a tyrosine selective inhibitor.
(§2) Inhibition by N-acetyl-imidazole was carried out in three different ways: by addition of the NAI to enzyme solution, to pectin solution, and to mixed enzyme and substrate. Typically we used 1% pectin (5% for papain also), enzyme concentrations of 0.005-0.088% and NAI concentrations of 1.4mg.100 ml.

[2] = tested on: ficin derived PME (pectin methyl esterase); assay: as above; type: biochemical, fig; conditions: NAI 1.4mg.100 ml; 1% pectin; enzyme 0.005-0.088%
Method: as §1, §2

[3] = tested on: bromelain derived PME (pectin methyl esterase); assay: as above; type: biochemical, bromelard; conditions: NAI 1.4mg.100 ml; 1% pectin; enzyme 0.005-0.088%
Method: as §1, §2

[4] = tested on: WGL (wheat germ lipase) derived PME (pectin methyl esterase); assay: as above; type: biochemical; conditions: NAI 1.4mg.100 ml; 1% pectin; enzyme 0.005-0.088%
Method: as §1, §2

bacterial PMEs = assay: as above; type: biochemical; conditions: NAI 1.4mg.100 ml; 1% pectin; enzyme 0.005-0.088%
Method: as §1, §2

orange PME = assay: as above; type: biochemical; conditions: NAI 1.4mg.100 ml; 1% pectin; enzyme 0.005-0.088%
Method: as §1, §2

tomato PME = assay: as above; type: biochemical; conditions: NAI 1.4mg.100 ml; 1% pectin; enzyme 0.005-0.088%
Method: as §1, §2

papain PME = assay: Effect of methanol (reaction product) on PME activity; type: biochemical, papaya; conditions: methanol concentration not stated
[5] = tested on: PMEs (papain PME, ficin PME and other known plant PMEs); assay: Inhibition of PME activity by galacturonic acid; type: biochemical; conditions: up to concentrations of 25 gl⁻¹

CC(=O)n1ccnc1 [NAI, N-acetyl-imidazole]
inhibition by NAI [1]: not to be inhibited | inhibition by NAI [2]: not to be inhibited | inhibition by NAI [3]: not to be inhibited | inhibition by NAI [4]: not to be inhibited | inhibition by NAI (bacterial PMEs): inhibited | inhibition by NAI (orange PME): inhibited | inhibition by NAI (tomato PME): inhibited

CO [methanol]
inhibition by methanol (papain PME; 1% pectin): inhibited | inhibition by methanol (papain PME; 5% pectin): hardly noticed | inhibition by methanol (papain PME): under certain conditions is inhibited and YES

galacturonic acid
inhibition by galacturonic acid [5]: None of the PMEs is inhibited
